{"source": "patent US4045298A", "about": "“Antibiotic XK-62-2 and process for production thereof” (priority 1972, dated 1977)", "key": {"[1]": {"tested_on": "Bacillus cereus ATCC 9634", "assay": "Antibacterial spectra by agar dilution method", "type": "cell-based", "details": "ATCC9634, Table 5, read-out: Minimum inhibitory concentration", "from_the_text": "(§1) Antibacterial spectra of XK-62-2 by agar"}, "[2]": {"tested_on": "Bacillus cereus var. myccides ATCC 9463", "assay": "Antibacterial spectra by agar dilution method", "type": "cell-based", "details": "ATCC9463, Table 5, read-out: Minimum inhibitory concentration", "from_the_text": "as §1"}, "[3]": {"tested_on": "Bacillus subtilis No. 10707", "assay": "Antibacterial spectra by agar dilution method", "type": "cell-based", "details": "Table 5, read-out: Minimum inhibitory concentration", "from_the_text": "as §1"}, "Escherichia coli ATCC 26": {"tested_on": "Escherichia coli ATCC 26", "assay": "Antibacterial spectra by agar dilution method", "type": "cell-based", "details": "ATCC26, Table 5, read-out: Minimum inhibitory concentration", "from_the_text": "as §1"}, "Escherichia coli KY 8302": {"tested_on": "Escherichia coli KY 8302", "assay": "Antibacterial spectra by agar dilution method", "type": "cell-based", "details": "KY8302, resistant to chloramphenicol, streptomycin, kanamycin, paromomycin, tetracycline and spectinomycin, read-out: Minimum inhibitory concentration", "from_the_text": "as §1"}, "Escherichia coli KY 8310": {"tested_on": "Escherichia coli KY 8310", "assay": "Antibacterial spectra by agar dilution method", "type": "cell-based", "details": "KY8310, resistant to chloramphenicol, streptomycin, kanamycin, gentamicin, kanendomycin, paromomycin, tetracycline and spectinomycin, read-out: Minimum inhibitory concentration", "from_the_text": "as §1"}, "Escherichia coli KY 8315": {"tested_on": "Escherichia coli KY 8315", "assay": "Antibacterial spectra by agar dilution method", "type": "cell-based", "details": "KY8315, resistant to streptomycin, kanamycin, paromomycin and neomycin, read-out: Minimum inhibitory concentration", "from_the_text": "as §1"}, "[4]": {"tested_on": "Klebsiella pneumoniae ATCC 10031", "assay": "Antibacterial spectra by agar dilution method", "type": "cell-based", "details": "ATCC10031, Table 5, read-out: Minimum inhibitory concentration", "from_the_text": "as §1"}, "[5]": {"tested_on": "Pseudomonas aeruginosa BMH No. 1", "assay": "Antibacterial spectra by agar dilution method", "type": "cell-based", "details": "BMHNO.1, Table 5, read-out: Minimum inhibitory concentration", "from_the_text": "as §1"}, "[6]": {"tested_on": "Salmonella typhosa ATCC 9992", "assay": "Antibacterial spectra by agar dilution method", "type": "cell-based", "details": "Salmonella enterica, read-out: Minimum inhibitory concentration", "from_the_text": "as §1"}, "[7]": {"tested_on": "Shigella sonnei ATCC 9290", "assay": "Antibacterial spectra by agar dilution method", "type": "cell-based", "details": "ATCC9290, Table 5, read-out: Minimum inhibitory concentration", "from_the_text": "as §1"}, "[8]": {"tested_on": "Staphylococcus aureus ATCC 6538P", "assay": "Antibacterial spectra by agar dilution method", "type": "cell-based", "details": "ATCC6538P, Table 5, read-out: Minimum inhibitory concentration", "from_the_text": "as §1"}, "[9]": {"tested_on": "Staphylococcus aureus KY 8942", "assay": "Antibacterial spectra by agar dilution method", "type": "cell-based", "details": "KY8942, resistant to kanamycin, paromomycin and streptomycin, read-out: Minimum inhibitory concentration", "from_the_text": "as §1"}, "[10]": {"tested_on": "Staphylococcus aureus KY 8953", "assay": "Antibacterial spectra by agar dilution method", "type": "cell-based", "details": "KY8953, resistant to streptomycin, kanamycin, paromomycin, tetracycline, neomycin, kanendomycin and erythromycin, read-out: Minimum inhibitory concentration", "from_the_text": "as §1"}, "[11]": {"tested_on": "Staphylococcus aureus KY 8956", "assay": "Antibacterial spectra by agar dilution method", "type": "cell-based", "details": "KY8956, resistant to streptomycin, paromomycin, tetracycline, erythromycin and oleandomycin, read-out: Minimum inhibitory concentration", "from_the_text": "as §1"}, "[12]": {"tested_on": "Staphylococcus aureus KY 8957", "assay": "Antibacterial spectra by agar dilution method", "type": "cell-based", "details": "KY8957, resistant to chloramphenicol, streptomycin, kanendomycin, tetracycline and paromomycin, read-out: Minimum inhibitory concentration", "from_the_text": "as §1"}, "[13]": {"tested_on": "Streptococcus faecalis ATCC 10541", "assay": "Antibacterial spectra by agar dilution method", "type": "cell-based", "details": "Enterococcus faecalis, ATCC10541, Table 5, read-out: Minimum inhibitory concentration", "from_the_text": "as §1"}, "[14]": {"tested_on": "Pseudomonas aeruginosa KY 8510", "assay": "Minimum inhibitory concentration by agar dilution method", "type": "cell-based", "from_the_text": "(§2) Minimum inhibitory concentration\n(§3) (γ/ml : by agar dilution method)"}, "[15]": {"tested_on": "Pseudomonas aeruginosa KY 8514", "assay": "Minimum inhibitory concentration by agar dilution method", "type": "cell-based", "details": "KY8514, clinical isolate, Table 7", "from_the_text": "as §2, §3"}, "[16]": {"tested_on": "Pseudomonas aeruginosa KY 8520", "assay": "Minimum inhibitory concentration by agar dilution method", "type": "cell-based", "details": "KY8520, clinical isolate, Table 7", "from_the_text": "as §2, §3"}, "[17]": {"tested_on": "Pseudomonas aeruginosa KY 8562", "assay": "Minimum inhibitory concentration by agar dilution method", "type": "cell-based", "details": "KY8562, clinical isolate, Table 7", "from_the_text": "as §2, §3"}, "[18]": {"tested_on": "Diplococcus pneumoniae III", "assay": "In vivo activity against pathogenic bacterial infections in mice", "from_the_text": "(§4) The in vivo activity of XK-62-2 against pathogenic bacterial infections in mice is further tested using various Gram-positive and Gram-negative bacteria. The mice are infected with an inoculum of the bacteria by intraperitonial injection and then treated with the test antibiotic by subcutaneous injection."}, "[19]": {"tested_on": "Escherichia coli GN 2411-5", "assay": "In vivo activity against pathogenic bacterial infections in mice", "from_the_text": "as §4"}, "[20]": {"tested_on": "Klebsiella pneumoniae No. 8045", "assay": "In vivo activity against pathogenic bacterial infections in mice", "from_the_text": "as §4"}, "Proteus mirabilis 1287": {"tested_on": "Proteus mirabilis 1287", "assay": "In vivo activity against pathogenic bacterial infections in mice", "from_the_text": "as §4"}, "[21]": {"tested_on": "Staphylococcus aureus Smith", "assay": "In vivo activity against pathogenic bacterial infections in mice", "from_the_text": "as §4"}, "[22]": {"tested_on": "Streptococcus pyogenes S23", "assay": "In vivo activity against pathogenic bacterial infections in mice", "from_the_text": "as §4"}, "Solubility": {"assay": "Solubility", "type": "physicochemical"}}}
{"compound": "CNC[C@@H]1CC[C@@H](N)[C@@H](O[C@H]2[C@H](O)[C@@H](O[C@H]3OC[C@](C)(O)[C@H](NC)[C@H]3O)[C@H](N)C[C@@H]2N)O1", "note": "[XK-62-2]", "values": [{"measurement": "MIC", "setting": "[1]", "value": 0.016, "unit": "µg/mL"}, {"measurement": "MIC", "setting": "[2]", "value": 0.0082, "unit": "µg/mL"}, {"measurement": "MIC", "setting": "[3]", "value": "< 0.004", "unit": "µg/mL"}, {"measurement": "MIC", "setting": "Escherichia coli ATCC 26", "value": 0.0082, "unit": "µg/mL"}, {"measurement": "MIC", "setting": "Escherichia coli KY 8302", "value": 0.033, "unit": "µg/mL"}, {"measurement": "MIC", "setting": "Escherichia coli KY 8310", "value": 1.05, "unit": "µg/mL"}, {"measurement": "MIC", "setting": "Escherichia coli KY 8315", "value": 0.016, "unit": "µg/mL"}, {"measurement": "MIC", "setting": "[4]", "value": 0.0082, "unit": "µg/mL"}, {"measurement": "MIC", "setting": "[5]", "value": 0.53, "unit": "µg/mL"}, {"measurement": "MIC", "setting": "[6]", "value": 0.018, "unit": "µg/mL"}, {"measurement": "MIC", "setting": "[7]", "value": 0.07, "unit": "µg/mL"}, {"measurement": "MIC", "setting": "[8]", "value": "< 0.0041", "unit": "µg/mL"}, {"measurement": "MIC", "setting": "[9]", "value": 0.065, "unit": "µg/mL"}, {"measurement": "MIC", "setting": "[10]", "value": 0.0041, "unit": "µg/mL"}, {"measurement": "MIC", "setting": "[11]", "value": "< 0.001", "unit": "µg/mL"}, {"measurement": "MIC", "setting": "[12]", "value": 0.0021, "unit": "µg/mL"}, {"measurement": "MIC", "setting": "[13]", "value": 1.05, "unit": "µg/mL"}, {"measurement": "Susceptibility of strain", "setting": "[14]; KY 8510", "value": "sensitive"}, {"measurement": "MIC", "setting": "[14]; Pseudomonas aeruginosa, KY8510, agar dilution, clinical isolate, Table 7", "value": 0.33, "unit": "µg/mL"}, {"measurement": "Antibacterial activity relative to gentamicin complex or gentamicin C1a", "setting": "[14]; vs gentamicin complex or gentamicin C1a", "value": "much higher antibacterial activity"}, {"measurement": "MIC", "setting": "[15]", "value": 0.55, "unit": "µg/mL"}, {"measurement": "MIC", "setting": "[16]", "value": 0.33, "unit": "µg/mL"}, {"measurement": "MIC", "setting": "[17]", "value": "> 42", "unit": "µg/mL"}, {"measurement": "ED50", "setting": "[18]; Streptococcus pneumoniae, sc, subcutaneous, challenge inoculum 4.4×10^3 cells/mouse, read-out: Median effective dose [ED50]", "value": "6.6 ± 1.9", "unit": "mg/kg"}, {"measurement": "Ratio XK-62-2/gentamicin complex", "setting": "[18]; ratio of ED50", "value": 0.86}, {"measurement": "ED50", "setting": "[19]; Escherichia coli, GN2411, sc, subcutaneous, challenge inoculum 3.6×10^6 cells/mouse, read-out: Median effective dose [ED50]", "value": "10.8 ± 4.1", "unit": "mg/kg"}, {"measurement": "Ratio XK-62-2/gentamicin complex", "setting": "[19]; ratio of ED50", "value": 1.01}, {"measurement": "ED50", "setting": "[20]; Klebsiella pneumoniae, NO.8045, sc, subcutaneous, challenge inoculum 1.4×10^8 cells/mouse, read-out: Median effective dose [ED50]", "value": "5.7 ± 1.4", "unit": "mg/kg"}, {"measurement": "Ratio XK-62-2/gentamicin complex", "setting": "[20]; ratio of ED50", "value": 0.74}, {"measurement": "ED50", "setting": "Proteus mirabilis 1287; Proteus mirabilis, 1287, sc, subcutaneous, challenge inoculum 1.8×10^8 cells/mouse, read-out: Median effective dose [ED50]", "value": "10.4 ± 4.4", "unit": "mg/kg"}, {"measurement": "Ratio XK-62-2/gentamicin complex", "setting": "Proteus mirabilis 1287; ratio of ED50", "value": 0.97}, {"measurement": "ED50", "setting": "[21]; Staphylococcus aureus, sc, subcutaneous, challenge inoculum 1.8×10^8 cells/mouse, read-out: Median effective dose [ED50]", "value": "0.28 ± 0.04", "unit": "mg/kg"}, {"measurement": "Ratio XK-62-2/gentamicin complex", "setting": "[21]; ratio of ED50", "value": 1.33}, {"measurement": "ED50", "setting": "[22]; Streptococcus pyogenes, S23, sc, subcutaneous, challenge inoculum 2.7×10^7 cells/mouse, read-out: Median effective dose [ED50]", "value": "17.7 ± 4.8", "unit": "mg/kg"}, {"measurement": "Ratio XK-62-2/gentamicin complex", "setting": "[22]; ratio of ED50", "value": 1.50}, {"measurement": "Solubility in acetone", "setting": "Solubility; acetone", "value": "soluble"}, {"measurement": "Solubility in chloroform, benzene, ethyl acetate, butyl acetate, ether, butanol, petroleum ether, n-hexane", "setting": "Solubility; chloroform, benzene, ethyl acetate, butyl acetate, ether, butanol, petroleum ether, n-hexane, etc.", "value": "insoluble"}, {"measurement": "Solubility in ethanol", "setting": "Solubility; ethanol", "value": "soluble"}, {"measurement": "Solubility in methanol", "setting": "Solubility; methanol", "value": "soluble"}, {"measurement": "Solubility in ordinary organic solvents", "setting": "Solubility; ordinary organic solvents", "value": "poorly soluble"}, {"measurement": "Solubility in water", "setting": "Solubility; water", "value": "very soluble"}]}
